# From article PMC11078216, “Discovery of potent and selective activity-based probes (ABPs) for the deubiquitinating enzyme USP30” (RSC Chemical Biology, 2024)
# Biological target: T1, ALDH2 (Homo sapiens, UniProt P05091)
# T1 construct: endogenous in cells; host or cells: HEK293T
# T1 sequence (P05091 18-517): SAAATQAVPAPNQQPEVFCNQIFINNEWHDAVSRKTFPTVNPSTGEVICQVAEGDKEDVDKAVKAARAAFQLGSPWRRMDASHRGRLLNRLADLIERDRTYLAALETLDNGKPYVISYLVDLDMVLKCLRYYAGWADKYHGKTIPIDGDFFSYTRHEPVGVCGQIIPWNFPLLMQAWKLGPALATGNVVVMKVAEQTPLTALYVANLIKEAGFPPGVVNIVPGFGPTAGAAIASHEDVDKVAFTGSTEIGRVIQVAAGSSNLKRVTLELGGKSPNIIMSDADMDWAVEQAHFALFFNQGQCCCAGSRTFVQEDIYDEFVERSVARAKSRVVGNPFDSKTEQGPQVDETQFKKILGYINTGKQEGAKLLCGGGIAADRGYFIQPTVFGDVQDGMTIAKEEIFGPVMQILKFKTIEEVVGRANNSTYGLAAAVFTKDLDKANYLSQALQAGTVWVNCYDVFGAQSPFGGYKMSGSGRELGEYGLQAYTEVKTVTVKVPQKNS
# Assay: ABPP chemical proteomics (LC-MS/MS) in HEK293T cells
# Type: cell-based
# In short: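 Read-out is quantitative LC-MS/MS of probe-labelled proteins from HEK293T cells treated with […]. Labelling used ABP 2 or ABP 4 in live cells (1 h, 37 °C), followed by lysate click chemistry and streptavidin-type enrichment.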
structure (smiles),measurement,setting,value
N#CN1CC[C@@H](NC(=O)c2cc(-c3ccccc3Oc3ccc(N=[N+]=[N-])cc3)n[nH]2)C1 [IMP-2586],Difference (log2 fold change of enrichment),"IMP-2586 labelling vs DMSO, 30 nM, 10 min, HEK293T (Table S4, Fig.5c)",2.13
C#Cc1cccc(-c2cc(NC(=O)CC3CCN(C#N)C3)on2)c1 (stereo not shown) [IMP-2587],Difference (log2 fold change of enrichment),"IMP-2587 labelling vs DMSO, 30 nM, 10 min, HEK293T (Table S2, Fig.5a)",3.49
"N#CN1CC[C@H](CC(=O)Nc2cc(-c3cccc(Cl)c3)no2)C1 [compound 1, reference compound]",Difference (log2 fold change of enrichment),"compound 1 out-competition with IMP-2587 labelling, HEK293T (Table S3, Fig.5b)",-3.07
"N#CN1CC[C@@H](NC(=O)c2cc(-c3ccccc3Oc3ccccc3)n[nH]2)C1 [compound 3, reference compound]",Difference (log2 fold change of enrichment),"compound 3 out-competition with IMP-2586 labelling, HEK293T (Table S5, Fig.5d)",-1.64
